Experimental data from EP0160115A1, “Growth stimulating food additive for animals” (SPOFA Spojené Podniky Pro Zdravotnickou Vyrobu, priority 1984, dated 1985).

Experiments:
[1] = Weight gain of pre-fattening pigs on supplemented feed in a herd with bloody diarrhoea (14 days); assay type: in vivo, Vormastschweine; details: 100 ppm of each active in feed; for Gesamtzuwachs x̄ (kg): control 8,95; for Endgewicht x̄ (kg): control 59,43; for Tageszuwachs: control 639; for Zuwachsindex (%): control = 100
From the text: Die Versuche wurden in einem Schweinemastbetrieb durchgeführt, bei dem ständig bei 5 bis 15 der Vormastschweine (Rasse BU x PC + L) von etwa 50 kg Gewicht, die in Koben zu 10 bis 15 Tieren untergebracht waren, blutige Durchfälle auftraten. Histologisch und mikrobiologisch wurde als Erreger der Durchfallerkrankung Vibrio coli festgestellt.
(§1) Die Versuchstiere wurden in 4 Gruppen aufgeteilt und während der gesamten Versuchsdauer von 14 Tagen mit dem Vormastschweine-Futtergemisch SOL unter folgender Wirkstoffzugabe behandelt: • Gruppe I (Kontrollgruppe): Futtergemisch allein Gruppe II: Phthalazol, 100 ppm • Gruppe III: Cyadox, 100 ppm • Gruppe IV: Cyadox und Phthalazol, je 100 ppm.

[2] = Fattening trial in early-weaned piglets with supplemented feed (4 weeks); assay type: in vivo, Ferkel; details: 28 days; for Zuwachsindex (%): 100 ppm of each active in feed; for Zuwachsindex (%) / Ausnutzungsindex (%): control = 100,0; for Ausnutzungsindex (%), difference from control (in brackets) / Ausnutzungsindex (%) / Futtermittel-Ausnutzung, x̄: 100 ppm of each active; for Futtermittel-Ausnutzung, x̄: feed consumption per unit of gain, control 2,0
From the text: Frühabgesetzte Ferkel (Mischlinge des weißen edlen Landschweinsx Landrasse), die innerhalb einer Zeitspanne von 6 Tagen geboren waren, wurden aus der Gebärstation am S. Tage nach dem Absetzen in die Versuchsanlage gebracht. Die Ferkel wurden in Gruppen von je 8 bis 12 Tieren in Boxen untergebracht, die mit Rostböden versehen und durch hölzerne Bodenplatten beheizt waren. Nach 7 Tagen Anpassungszeit wurde der eigentliche Mastversuch begonnen. Über die gesamte Versuchsdauer von 4 Wochen wurde in allen Gruppen das Futtergemishc ? OS 2 für früh abgesetzte Ferkel verfüttert, das durch Zusatz der entsprechenden Prämixe jeweils mit folgenden Wirkstoffen angereichert wurde: • Gruppe I (Kontrollgruppe): Futtergemisch allein ohne Zusatz • Gruppe II: Cyadox, 100 ppm (100 mg pro kg Futtergemisch) • Gruppe III: Roh-Tylo-sin, 100 ppm reine Tylosinbase • Gruppe IV : Cyadox und Roh-Tylosin, je 100 ppm.
Zu Beginn des Versuchs und am Versuchsende (28. Tag) wurden die Tiere individuell gewogen. Der Futterverbrauch pro Gruppe wurde täglich ermittelt und daraus die Futtermittelausnutzung, dh der Futterverbrauch pro Zuwachseinheit, berechnet. Ebenso wurde der Allgemeinzustand der Tiere täglich verfolgt.

[3] = Ratten, p.o.; cited from earlier work
Vibrio coli = experiment: Treatment of bloody diarrhoea in pre-fattening pigs via supplemented feed (14 days); assay type: in vivo, Vormastschweine
From the text: Die Versuche wurden in einem Schweinemastbetrieb durchgeführt, bei dem ständig bei 5 bis 15 der Vormastschweine (Rasse BU x PC + L) von etwa 50 kg Gewicht, die in Koben zu 10 bis 15 Tieren untergebracht waren, blutige Durchfälle auftraten.
as §1

[4] = 100 ppm of each active in feed, 14 days

Question: For `N#CCC(=O)NN=Cc1c[n+]([O-])c2ccccc2[n+]1[O-]` [Cyadox, 2-Formylchinoxalin-1,4-dioxy-cyanacetyl-hydrazon], which “Gesamtzuwachs x̄ (kg)” value [1] is on record?
Answer: The value was 10,10 kg.

Question: And the “Endgewicht x̄ (kg)” value [1]?
Answer: The value was 57,90 kg.

Question: What about the “Tageszuwachs” value [1] of the same compound?
Answer: The value was 721 g.

Question: And the “Zuwachsindex (%)” value [1]?
Answer: Its value is 112,8%.

Question: What about the “Zuwachsindex (%)” value [2] of the same compound?
Answer: The value was 109,8%.

Question: What about the “Ausnutzungsindex (%), difference from control (in brackets)” value [2] of the same compound?
Answer: Its value is -0,5%.

Question: What about the “Ausnutzungsindex (%)” value [2] of the same compound?
Answer: The value was 99,5%.

Question: What about the “Futtermittel-Ausnutzung, x̄” value [2] of the same compound?
Answer: The value was 1,99.

Question: What about the LD50 [3] of the same compound?
Answer: Its LD50 is 15000 mg/kg.

Question: What about the “Anzeichen blutiger Durchfälle” value (Vibrio coli; [4]) of the same compound?
Answer: Its value is “keine Anzeichen blutiger Durchfälle”.

Question: And the Heilungsgrad (Vibrio coli; [4])?
Answer: Its Heilungsgrad is 100.

Question: With `O=C(O)c1ccccc1C(=O)Nc1ccc(S(=O)(=O)Nc2nccs2)cc1` [Phthalazol] as the compound, how does the “Gesamtzuwachs x̄ (kg)” value [1] read?
Answer: Its value is 8,99 kg.

Question: What about the “Endgewicht x̄ (kg)” value [1] of the same compound?
Answer: Its value is 59,61 kg.

Question: And the “Tageszuwachs” value [1]?
Answer: The value was 642 g.

Question: And the “Zuwachsindex (%)” value [1]?
Answer: The value was 100,5%.

Question: What about the “Schweine notgeschlachtet wegen unbefriedigenden Allgemeinzustands” value (Vibrio coli; at end of trial, group of 20 pigs, 100 ppm) of the same compound?
Answer: The value was 5.

Question: Which results are given for `CC[C@H]1OC(=O)C[C@@H](O)[C@H](C)[C@@H](O[C@@H]2O[C@H](C)[C@@H](O[C@H]3C[C@@](C)(O)[C@@H](O)[C@H](C)O3)[C@H](N(C)C)[C@H]2O)[C@@H](CC=O)C[C@@H](C)C(=O)/C=C/C(C)=C/[C@@H]1CO[C@@H]1O[C@H](C)[C@@H](O)[C@@H](OC)[C@H]1OC` [Tylosin]?
Answer: Zuwachsindex (%) [2]: 125,9%; Ausnutzungsindex (%), difference from control (in brackets) [2]: -7,8%; Ausnutzungsindex (%) [2]: 92,2%; Futtermittel-Ausnutzung, x̄ [2]: 1,90
